Measurements reported in patent US20050085447A1, “Pyrido[3,4-d]pyrimidine derivatives as matrix metalloproteinase-13 inhibitors” (Warner-Lambert Company LLC, priority 2003, published 2005).

Columns and labels:
male Wistar rats = assay: Monosodium iodoacetate-induced osteoarthritis in rat model of cartilage damage (MIA Rat); assay type: in vivo; settings: for inhibition of cartilage erosion (surface area of erosion) versus vehicle control / rats in the treatment group that exhibited no cartilage erosion: 4 weeks
Source text: One end result of the induction of osteoarthritis in this model, as determined by histologic analysis, is the development of an osteoarthritic condition within the affected joint, as characterized by the loss of Toluidine blue staining and formation of osteophytes. Associated with the histologic changes is a concentration-dependent degradation of joint cartilage, as evidenced by affects on hind-paw weight distribution of the limb containing the affected joint, the presence of increased amounts of proteoglycan or hydroxyproline in the joint upon biochemical analysis, or histopathological analysis of the osteoarthritic lesions.
In the MIA Rat model on Day 0, the hind-paw weight differentials between the right arthritic joint and the left healthy joint of male Wistar rats (150 g) were determined with an incapacitance tester, model 2KG (Linton Instrumentation, Norfolk, United Kingdom). […] Then the rats were anesthetized with isofluorine, and the right, hind leg knee joint was injected with 1.0 mg of mono-iodoacetate (“MIA”) through the infrapatellar ligament. […] The rats were further administered either the compound of Compound Example 1 or vehicle (in the instant case, water) daily for 14 days or 28 days. The compound of Compound Example 1 was administered at doses of 1, 3, 10, and 30 milligrams per kilogram of rat per day, but invention compounds may be administered at other doses such as, for example, 60 mg/kg/day, 90-mg/kg/day, or 100 mg/kg/day according to the requirements of the compound being studied. It is well within the level of ordinary skill in the pharmaceutical arts to determine a proper dosage of an invention compound in this model.
Generally, an invention compound may be administered in this model by oral administration, but optionally intravenous administration via an osmotic pump could be employed. After 7 and 14 days for a two-week study, or 7, 14, and 28 days for a four-week study, the hind-paw weight distribution may be determined. […] This change in weight distribution was proportional to the degree of joint cartilage damage. Percent inhibition of a change in hind paw joint function was calculated as the percent change in hind-paw weight distribution for treated animals versus control animals. For example, for a two week study,
In the present study the compound of Compound Example 1 was administered perorally, and hind-paw weight differentials were determined at both 2 and 4 weeks. Further, in order to detect the presence of erosion of cartilage in the joints, the animals in the above study were sacrificed at 4 weeks, and the presence or absence of cartilage erosion was determined. The proportion of subjects without hind limb erosions was determined via an Exact Sequential Cochran-Armitage Trend test (SAS® Institute, 1999). The Cochran-Armitage Trend test was employed to determine whether the proportion of positive or “Yes” responders increases or decreases with increasing levels of treatment. For this particular study, it was expected that the number of animals without joint erosions increased with increasing dose.

MMP-17 catalytic domain = molecular target: T1, MMP-17 catalytic domain (Homo sapiens, UniProt Q9ULZ9); assay: Thiopeptolide substrate hydrolysis inhibition assay, MMP-17 catalytic domain; assay type: biochemical; settings: read-out: MMP-17 CD IC50
T1 construct: MMP-14 catalytic domain, and MMP-17 catalytic domain
T1 sequence (Q9ULZ9 126-295 limits assumed): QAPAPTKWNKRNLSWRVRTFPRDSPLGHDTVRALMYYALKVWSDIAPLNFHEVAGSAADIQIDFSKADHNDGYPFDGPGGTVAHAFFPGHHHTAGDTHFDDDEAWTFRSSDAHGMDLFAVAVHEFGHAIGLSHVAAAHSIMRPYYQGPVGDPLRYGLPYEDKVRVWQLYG
Source text: (§1) The assay methods of Biological Examples 1-4 measure the amount by which a test compound reduces the hydrolysis of a thiopeptolide substrate catalyzed by a matrix metalloproteinase enzyme or catalytic domain thereof. It has been shown previously by Ye Qi-Zhuang, Hupe D., and Johnson L. (Current Medicinal Chemistry, 1996;3:407-418) that inhibitor activity against a catalytic domain of an MMP is predictive of the inhibitor activity against the respective full-length MMP enzyme. The methods described below for the inhibition of MMP-13 may also be adapted and used to determine the ability of the compounds of Formula I to inhibit other matrix metalloproteases such as MMP-1, MMP-2, MMP-3, MMP-7, MMP-8, MMP-9, MMP-12, MMP-14, MMP-17, and the like.
(§2) Thiopeptolide substrates show virtually no decomposition or hydrolysis at or below neutral pH in the absence of a matrix metalloproteinase enzyme. A typical thiopeptolide substrate commonly utilized for assays is Ac-Pro-Leu-Gly-thioester-Leu-Leu-Gly-OEt. A 100 μL assay mixture will contain 50 mM of N-2-hydroxyethylpiperazine-N′-2-ethanesulfonic acid buffer (“HEPES,” pH 7.0), 10 mM CaCl2, 100 μM thiopeptolide substrate, and 1 mM 5,5′-dithio-bis-(2-nitro-benzoic acid) (DTNB). […] The change in absorbance at 405 nm is monitored on a Thermo Max microplate reader (molecular Devices, Menlo Park, Calif.) at room temperature (22° C.). The calculation of the amount of hydrolysis of the thiopeptolide substrate is based on E412=13600 M^−1 cm^−1 for the DTNB-derived product 3-carboxy-4-nitrothiophenoxide. Assays are carried out with and without matrix metalloproteinase inhibitor compounds, and the amount of hydrolysis is compared for a determination of inhibitory activity of the test compounds.
(§3) Test compounds were evaluated at various concentrations in order to determine their respective IC50 values, the micromolar concentration of compound required to cause a 50% inhibition of catalytic activity of the respective enzyme.
(§4) Some representative compounds of Formula I have been evaluated for their ability to inhibit MMP-13, MMP-1FL, MMP-3CD, MMP-7FL, MMP-8FL, MMP-9FL, MMP-12CD, MMP-14CD, and/or MMP-17CD, wherein FL means full-length enzyme and CD means a catalytic domain of the full-length enzyme. Test compounds can be evaluated at various concentrations in order to determine their respective IC50 values, the micromolar concentration of compound required to cause a 50% inhibition of the hydrolytic activity of the respective enzyme.
(§5) Certain compounds of Formula I have also been assayed with MMP-1 full-length, MMP-3 catalytic domain, MMP-7 full-length, MMP-8 full-length, MMP-9 full-length, MMP-12 catalytic domain, MMP-14 catalytic domain, and MMP-17 catalytic domain. […] In Biological Table 2, the compound example numbers for the Compound Examples are indicated in the column labelled “Ex. No.”

MMP-3 catalytic domain = molecular target: T2, MMP-3 catalytic domain (Homo sapiens, UniProt P08254); assay: Thiopeptolide substrate hydrolysis inhibition assay, MMP-3 catalytic domain; assay type: biochemical; settings: MES buffer pH 6.0, read-out: MMP-3CD IC50
T2 construct: MMP-1 full-length, MMP-3 catalytic domain, MMP-7 full-length
Source text: as §1, §2, §3
It should be appreciated that the assay buffer used with MMP-3CD was 50 mM N-morpholinoethane sulfonate (“MES”) at pH 6.0 rather than the HEPES buffer at pH 7.0 described above.
as §4, §5

T2 sequence (P08254 100-272 limits assumed): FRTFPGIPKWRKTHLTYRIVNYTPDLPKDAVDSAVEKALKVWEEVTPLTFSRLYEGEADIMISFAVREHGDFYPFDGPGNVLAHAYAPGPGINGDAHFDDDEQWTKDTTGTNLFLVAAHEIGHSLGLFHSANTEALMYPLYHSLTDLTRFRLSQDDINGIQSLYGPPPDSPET

SMILES: COc1ccc(CNC(=O)c2cc3c(=O)n(Cc4ccc(C(=O)O)cc4)cnc3cn2)cc1 [Compound Example 1, 4-[6-(4-methoxy-benzylcarbamoyl)-4-oxo-4H-pyrido[3,4-d]pyrimidin-3-ylmethyl]-benzoic acid]
- cartilage erosion versus vehicle control (in words) (male Wistar rats; 2 weeks, 1, 3, 10 and 30 mg/kg orally BID): inhibited in a dose dependent manner cartilage erosion
- inhibition of cartilage erosion (surface area of erosion) versus vehicle control (male Wistar rats; 1 mg/kg orally BID): 40.5%
- rats in the treatment group that exhibited no cartilage erosion (male Wistar rats; 1 mg/kg orally BID): 5/12
- inhibition of cartilage erosion (surface area of erosion) versus vehicle control (male Wistar rats; 3 mg/kg orally BID): 55.6%
- rats in the treatment group that exhibited no cartilage erosion (male Wistar rats; 3 mg/kg orally BID, p<0.05 versus vehicle): 7/12
- inhibition of cartilage erosion (surface area of erosion) versus vehicle control (male Wistar rats; 10 mg/kg orally BID): 61.6%
- rats in the treatment group that exhibited no cartilage erosion (male Wistar rats; 10 mg/kg orally BID, p<0.05 versus vehicle): 7/12
- inhibition of cartilage erosion (surface area of erosion) versus vehicle control (male Wistar rats; 30 mg/kg orally BID): 32.9%
- rats in the treatment group that exhibited no cartilage erosion (male Wistar rats; 30 mg/kg orally BID): 4/12
- IC50 (MMP-17 catalytic domain): > 100 µM
- IC50 (MMP-3 catalytic domain): 26 µM
